Marks after values point to notes of the source that are not given here. No end group written: not given here.
Experiments:
[1] = tested on: NK cell; assay: NK cell cytotoxicity activity test (YAC-1 target cells, MTT) on spleen cells of treated mice; type: in vivo, BALB/c mice; conditions: IFN-γ and IL-2 groups 3×10^5 IU/kg/day, X ± SD
Experimental: (§1) The above substances were all dissolved in 0.5 ml saline and injected intraperitoneal (i.p.) for 15 continuous days, once per day.
(§2) Ten mice per group. The day after the last test substance administration, the mice were sacrificed by cervical dislocation. The spleen was isolated aseptically and manually dispersed in cold D-Hank's solution using an injection needle. The dispersed cell suspension was further sieved through a 100 gauge 150 μm diameter stainless steel sieve. After centrifugation at 200 g for 10 minutes, the supernatant was discarded. The cell pellet was re-suspended in 10 volume of Tris-NH4Cl buffer and then kept standing still for 10 minutes at room temperature. The suspended cells were collected by centrifugation at 150 g for 10 minutes. The cells were washed 2-4 times with cold D-Hank's solution by re-suspending and collecting by centrifugation with condition as described above. The washed cells were then diluted to the desired cell densities by RPMI-1640 culture medium, containing 10% fetal bovine serum.
Mice spleen cells were prepared to 4×10^6/ml as described in section 1.1 above. Target cells YAC-1 were brought to log phase and adjusted to 1×10^5/ml. Using a 96 wells cell culture plate, 100 μl mouse spleen cells and 100 μl culture medium were added to the control well containing only the spleen cells; 100 μl target cells and 100 μl culture medium were added to the control well containing only target cells; 100 μl mouse spleen cells and 100 μl target cells were added to the NK activity assay well. Three parallel sets of the above were prepared per mouse.
Samples were centrifuged at 150 g for 10 minutes to collect the cells. The supernatant was discarded and 50 μl/well MTT of 1 mg/ml was added. The reaction mixture was then shaken for 2 minutes, and incubated at 37° C., 5% CO2 for 4 hours. The supernatant was discarded after centrifugation at 150 g for 10 minutes. 120 μl 40 mM HCl-2-propanol was added and shaken for 3 minutes. An ELISA reader was used to obtain OD570nm of each well referenced at 630 nm.

[2] = tested on: T lymphocyte; set-up: species or system BALB/c mice; conditions: mouse, in vivo, ip
[3] = tested on: anti-SRBC antibody; assay: Sheep Red Blood Cell (SRBC) hemolysis test, anti-SRBC antibody formation; type: in vivo, BALB/c mice; conditions: SRBC on day 12, IFN-γ and IL-2 groups 3×10^5 IU/kg/day, X ± SD
Experimental: Sheep red blood cells (SRBC) were prepared by collecting blood from cervical vein and put into a sterile flask with glass beads. The flask was shaken for 3 minutes and the blood then mixed with Alsever solution (glucose 2.05 g, NaCl 0.4 g, […] 0.8 g, adjust to 100 ml with distilled water) and stored at 4° C. Immediately before use, samples were centrifuged at 130 g, 5 minutes to collect the SRBC. The cells were washed two times by re-suspension and centrifugation in normal saline. Then the cell pellet was collected by centrifugation at 180 g for 10 minutes and re-suspended in saline to make the final working SRBC suspension, 2% (v/v).
Complement was prepared by adding 10 volumes of fresh Cavy serum into one volume centrifuge packed SRBC, and then gently shaking for 30 minutes at 4° C. The SRBC was removed by centrifugation at 200 g for 10 minutes. 10 volumes of normal saline were added to obtain the working complement solution.
The test substances were administered as described in section 1.1, plus intraperitoneal injection 0.2 ml SRBC per mouse on day 12. On the day after the last test substance administration (day 16), blood was collected from the eye canthus and left at room temperature for one hour for serum exudation. After centrifugation at 200 g for 10 minutes, the serum was diluted by 500 times with normal saline.
To 1 ml diluted mouse serum of each mouse, 0.5 ml SRBC suspension was added. Ice cold. Then 1 ml working complement solution was added and incubated at 37° C. water bath for 10 minutes. Reactions were terminated by ice cold. Samples were then centrifuged at 200 g for 10 minutes to obtain the supernatant.
To 1 ml of this supernatant, 3 ml Drabkin solution was added and left at room temperature for 10 minutes. OD540nm was obtained.
Reference OD540nm was obtained by mixing 0.25 ml SRBC suspension with Drabkin solution to 4 ml and placed at room temperature for 10 minutes before OD540nm was taken. Sample serum index=(OD540nm of test sample[…]reference OD540nm)×500 3. The Effect of Peptides on the Phagocytosis Function of Mononuclear Phagocyte and the Weight of Immune Organ^[8,9].

[4] = tested on: mononuclear phagocyte; assay: carbon particle clearance test, phagocytotic activity of mononuclear phagocyte; type: in vivo, BALB/c mice; set-up: key: α = (cube root of K)×(body weight ÷ liver+spleen weight); conditions: IFN-γ and IL-2 groups 3×10^5 IU/kg/day, X ± SD
Experimental: On the next day after the last test substance administration (day 16), the mice were injected with […] body weight India ink (5 times dilution with normal saline) from the tail vein.
One minute and five minutes after Indian ink injection, 20 μl blood was obtained from the eye can thus with a heparinized tubing. The blood was mixed with 2 ml 0.1% w/v Na2CO3 and then OD680nm obtained. The outline clear index K was calculated by the following formula: K=(lgA1−lgA2)÷(t2−t1) Key: A1: OD680nm at first minute A2: OD680nm at fifth minute t2: 5 minutes […]
(§3) One day after the last test substance administration (day 16), the liver, spleen, and thymus gland were separated and blotted dry with filter paper and weighed. The phagocytosis index α was calculated as below: α=(^3√K)(W÷WLS) key: W: body weight WLS: weight of liver plus spleen Thymus gland index(%)=(thymus weight/body weight)×100% Spleen index(%)=(spleen weight/body weight)×100%

[5] = immunity organ weight test (thymus gland index, spleen index); type: in vivo, BALB/c mice; conditions: X ± SD
Experimental: as §1, §3

[6] = tested on: T lymphocyte; assay: T lymphocyte transformation test (ConA, MTT) on spleen cells of treated mice; type: in vivo, BALB/c mice; set-up: key: OD of assay wells divided by OD of control wells; conditions: peptide 500 μg/kg/day i.p. 15 days; IFN-γ and IL-2 groups 3×10^5 IU/kg/day; X ± SD
Experimental: as §1, §2
(§4) Spleen cells of density 1×10^6/ml were placed onto a 96 wells cell culture plate, 100 μl/well, three parallel wells each of the assay sample and control sample per mouse. To the assay wells, 100 μl/well ConA of 100 μg/ml in RPMI-1640 was added, and 100 μl/well plain RPMI-1640 was used for the controls. The cells were incubated for 66 hrs at 37° C., 5% CO2. The cells were then pelleted by centrifugation at 150 g for 10 minutes.
50 μl/well MTT of 1 mg/ml in RPMI-1640 was added to the cell pellet and the cells re-suspended by shaking for 2 minutes. The incubation was continued for 4 hours. The supernatant was discarded after centrifugation at 150 g for 10 minutes. 120 μl 40 mM HCl-2-propanol was added to the cell pellet and shaken for 3 minutes. to obtain OD570nm of each well referenced at 630 nm. An ELISA reader was used
Each mouse formed three assay wells and three control wells. The Stimulation Index (SI) of each mouse was obtained by first deriving the average OD of the three parallel wells, then dividing the value of the assay wells by the control wells.

[7] = tested on: T lymphocyte; assay: T lymphocyte IL-2 secretion test (HT-2 cell bioassay of ConA supernatant); type: in vivo, BALB/c mice; conditions: IFN-γ and IL-2 groups 3×10^5 IU/kg/day, X ± SD
Experimental: as §1, §4
HT-2 cells at log phase were collected by centrifugation at 150 g for 10 minutes, and washed three times with cold Hank's solution by re-suspension and centrifugation. The collected HT-2 cells were re-suspended in RPMI-1640 and incubated at 37° C., 5% CO2 for 30 minutes. The cells were further washed twice with RPMI-1640 by re-suspension and centrifugation, and re-suspended to final concentration of 2×10^5/ml with RPMI-1640.
rIL-2 was diluted to the following concentration with RPMI-1640: 500 IU/ml, 250 IU/ml, 125 IU/ml, 62.5 IU/ml, 31.25 IU/ml, and […].
A 96 well cell culture plate was set up with three parallel wells per combination:
Negative control: 100 μl RPMI-1640+100 μl HT-2 cell suspension
rIL-2 standard: 100 μl rIL-2 solution+100 μl HT-2 cell suspension
Assay well: 100 μl diluted supernatant+100 μl HT-2 cell suspension
The plate was incubated at 37° C., 5% CO2 for 68 hours, then centrifuged at 150 g for 15 minutes and the supernatant removed. 100 μl 0.5 mg/ml MTT in RPMI-1640 without phenolsulfonphthalein was added into each well. After shaking for 3-4 minutes to re-suspend the cells, continue to incubate for another 4 hours. Samples were then centrifuged at 150 g for 15 minutes and the supernatant was removed. To each well, 120 μl 40 mM HCl-2-propanol was added, mixed for 3-4 minutes and OD analyzed at 570 nm, referenced at 630 nm with an ELISA plate reader.
The average OD of the three parallel wells of each dilution was taken and plotted against concentration on a semi-log paper, concentration on the X-axis. The concentration at 50% OD saturation was obtained for both the testing supernatant and rIL-2.

[8] = peptide 500 μg/kg/day i.p. 15 days
[9] = peptide 0.5 μg/kg/day i.p. 15 days
[10] = peptide 5 μg/kg/day i.p. 15 days
[11] = peptide 50 μg/kg/day i.p. 15 days
[12] = peptide 5 μg/kg/day i.p. 15 days, IFN-γ and IL-2 groups 3×10^5 IU/kg/day
[13] = peptide 0.5 μg/kg/day i.p. 15 days, IFN-γ and IL-2 groups 3×10^5 IU/kg/day
[14] = peptide 50 μg/kg/day i.p. 15 days, IFN-γ and IL-2 groups 3×10^5 IU/kg/day
[15] = peptide 500 μg/kg/day i.p. 15 days, IFN-γ and IL-2 groups 3×10^5 IU/kg/day

| Substance | NK cell cytotoxic activity (NK cell activity index) [1, 8] | activity of T lymphocyte in secreting IFN [2] | anti-SRBC antibody formation (sample serum index) [3, 9] | anti-SRBC antibody formation (sample serum index) [3, 10] | anti-SRBC antibody formation (sample serum index) [3, 11] | anti-SRBC antibody formation (sample serum index) [3, 8] | phagocytotic index [4, 10] | weight of thymus gland (thymus gland index) [5, 12] | weight of spleen (spleen index) [5, 8] | stimulation index (T lymphocyte transformation) [6] | NK cell cytotoxic activity (NK cell activity index) [1, 11] | NK cell cytotoxic activity (NK cell activity index) [1, 10] | activity of T lymphocyte in secreting IL-2 [7, 10] | phagocytotic index [4, 8] | weight of spleen (spleen index) [5, 13] | weight of thymus gland (thymus gland index) [5, 13] | weight of thymus gland (thymus gland index) [5, 14] | weight of thymus gland (thymus gland index) [5, 15] | NK cell cytotoxic activity (NK cell activity index) [1, 9] | activity of T lymphocyte in secreting IL-2 [7, 9] |
| --- | --- | --- | --- | --- | --- | --- | --- | --- | --- | --- | --- | --- | --- | --- | --- | --- | --- | --- | --- | --- |
| LRVAPEEHPVL [CMS013] | 84 ± 9 % | 154 ± 15*^@^ IU | 7 ± 1* Unit | 93 ± 28*^@ Unit | 70 ± 9*^@ Unit | 80 ± 16*^@ Unit | 6.7 ± 0.2 | 0.21 ± 0.05 % | 0.44 ± 0.07 % | – | – | – | – | – | – | – | – | – | – | – |
| MATAASSSSL [CMS021] | – | 143 ± 17*^@^ IU | 57 ± 9*^@ Unit | 82 ± 30*^@ Unit | 94 ± 20*^@^ Unit | – | – | 0.20 ± 0.06 % | 0.36 ± 0.04 % | 1.6 ± 0.1 | 88 ± 12*^@^ % | – | – | – | – | – | – | – | – | – |
| VGMGQKDSYV [CMS020] | – | – | 10 ± 3* Unit | 89 ± 24*^@ Unit | – | 155 ± 35*^@^ Unit | – | 0.24 ± 0.07*^@^ % | – | – | – | 91 ± 6 % | 63 ± 11 IU | 6.4 ± 0.6 | 0.68 ± 0.09*^@^ % | 0.23 ± 0.05*^@^ % | 0.27 ± 0.03*^@^ % | 0.19 ± 0.04 % | – | – |
| LGMEACGIHETTY [CMS012] | – | 86 ± 9 IU | – | 81 ± 22*^@ Unit | 50 ± 14* Unit | 141 ± 21*^@^ Unit | – | 0.27 ± 0.06*^@^ % | – | 1.6 ± 0.2 | 40 ± 9 % | 85 ± 7 % | 65 ± 16 IU | – | – | 0.22 ± 0.06*^ % | 0.26 ± 0.02*^@^ % | – | 77 ± 6 % | 59 ± 13 IU |
| Tyr Ser Phe (YSF; listed as Sus scrofa) [CMS022] | – | 145 ± 13*^@^ IU | – | – | 110 ± 16*^@^ Unit | 68 ± 31* Unit | – | 0.25 ± 0.04*^@^ % | – | – | – | – | – | 7.4 ± 0.6*^@^ | – | 0.21 ± 0.06 % | 0.30 ± 0.03*^@^ % | 0.26 ± 0.05*^@^ % | 73 ± 11 % | 109 ± 14*^@^ IU |
| Phe Glu Pro Ser Phe (FEPSF; listed as Sus scrofa) [CMS028] | 90 ± 5 % | 96 ± 13 IU | 18 ± 5* Unit | 121 ± 48*^@^ Unit | – | – | – | 0.28 ± 0.06*^@^ % | – | – | – | – | – | – | – | 0.20 ± 0.06 % | 0.18 ± 0.04 % | 0.19 ± 0.02 % | 79 ± 3 % | – |

— patent publication US7718768B2, “Biologically active peptide [sequence]” (CMS Peptides Patent Holding Company Limited, priority 2001, dated 2010)
